One data set concerns the target T1, EGFR(L858R) (Homo sapiens, UniProt P00533, L858R).
T1 construct: purchased Eurofins/DiscoverX KINOMEscan (scanEDGE panel)
Nature of the data set: KINOMEscan scanEDGE binding. The conditions noted are these: KinomeEDGE scan, compound at 1 μΜ.

The next data set concerns the target T2, FGFR3 (Homo sapiens, UniProt P22607).
T2 construct: purchased Eurofins/DiscoverX KINOMEscan (scanEDGE panel)
Nature of the data set: KINOMEscan scanEDGE binding. The conditions noted are these: KinomeEDGE scan, compound at 1 μΜ.

For a further data set, the target named is T3, IKK-beta (Homo sapiens, UniProt O14920).
T3 construct: purchased Eurofins/DiscoverX KINOMEscan (scanEDGE panel)
Nature of the data set: KINOMEscan scanEDGE binding. Particulars: KinomeEDGE scan, compound at 1 μΜ.

The target in the next data set is T4, CDK7 (Homo sapiens, UniProt P50613).
T4 construct: purchased Eurofins/DiscoverX KINOMEscan (scanEDGE panel)
Nature of the data set: KINOMEscan scanEDGE binding. The conditions noted are these: KinomeEDGE scan, compound at 1 μΜ.

The conditions of data set [1]: standard of care dose for CML; cited from earlier work.
A further data set concerns the target T5, ERBB4 (Homo sapiens, UniProt Q15303).
T5 construct: purchased Eurofins/DiscoverX KINOMEscan (scanEDGE panel)
Nature of the data set: KINOMEscan scanEDGE binding. Particulars: KinomeEDGE scan, compound at 1 μΜ.

The next data set concerns the target T6, CRAF (Homo sapiens, UniProt P04049).
T6 construct: purchased Millipore #17-360
Nature of the data set: CRAF kinase activity assay (western blot). The data set is classed as biochemical. Background: Immunoblotting shows a protein as a band on a membrane.

In another data set the target is T7, AXL (Homo sapiens, UniProt P30530).
T7 construct: purchased Eurofins/DiscoverX KINOMEscan (scanEDGE panel)
Nature of the data set: KINOMEscan scanEDGE binding. Particulars: KinomeEDGE scan, compound at 1 μΜ.

The target in data set [2] is T8, BRAF^V600E (Homo sapiens, UniProt P15056, V600E). Nature of the data set: BRAF kinase activity assay (western blot). The data set is classed as biochemical. The arrangement: purchased Invitrogen (SelectScreen service).
Method: (§2) Kinase activity assays were performed using BRAF Kinase Assay Kit (#17-359), CRAF Kinase Assay Kit (#17-360) and MAP Kinase/Erk Assay Kit (#17-191), following protocols by the provider (Millipore) with some modifications. In brief, BRAF and CRAF, and MEK1 recombinant proteins were incubated for 15 min with inhibitors, then corresponding substrates were added and incubated for 30 min at 30 °C and assayed via western blot.
Another data set concerns the target FGFR1 (Homo sapiens, UniProt P11362). Nature of the data set: KINOMEscan scanEDGE binding. The arrangement: purchased Eurofins/DiscoverX KINOMEscan (scanEDGE panel). The conditions noted are these: KinomeEDGE scan, compound at 1 μΜ.
Another data set has as its system EPHA. Nature of the data set: KINOMEscan scanEDGE binding. Details: species or system human. Particulars: KinomeEDGE scan, compound at 1 μΜ.
Data set [3] addresses BRAF^V600E monomers in A375 cells (Homo sapiens, UniProt P15056, V600E). Nature of the data set: Cellular Thermal Shift Assay (CETSA). It counts as cell-based. Particulars: 20 μΜ compound, versus DMSO.
Method: The samples were incubated for 1 h at room temperature, rotating. After compound incubation, samples (50 μL each) were transferred in PCR tubes and incubated for 3 min in a temperature gradient produced with a C1000 thermal cycler (Bio-Rad). Cells were immediately lysed by repeating freeze-thaw cycles (3× times) in liquid nitrogen. […] Equal volumes of supernatants were run on 15-well 4–12% NuPAGE SDS-PAGE gels (Invitrogen), and analyzed by western blot. GAPDH, which is temperature insensitive under these conditions, served as loading control. Results were quantitated by densitometric analysis as described above.
Data set [4] concerns the target T9, ABL1(T315I)-phosphorylated (Homo sapiens, UniProt P00519, T315I).
T9 construct: purchased Eurofins/DiscoverX KINOMEscan (scanEDGE panel)
Nature of the data set: KINOMEscan scanEDGE binding. Particulars: KinomeEDGE scan, compound at 1 μΜ.

In data set [5] the target is T8, BRAF^V600E. Nature of the data set: SelectScreen Z'-LYTE kinase activity assay. It counts as biochemical. Details: purchased Invitrogen (SelectScreen service). The conditions noted are these: 100 μM ATP.
Method: BRAF kinase assays were performed using the Z’-LYTE™ enzymatic assay (Invitrogen, USA). […] Titrations were performed using a 1:3 dilution. Assays were performed using SelectScreen (Invitrogen).
For data set [6], the system named is HEK293H cells expressing p61BRAF^V600E. Nature of the data set: p-ERK inhibition in transfected HEK293H cells. Particulars: HEK293-H, 1 μM lapatinib pre-treatment 1 h, PHI1 1 h, read-out: IC50 of pERK inhibition. It counts as cell-based. As to the method: (§1) HEK239H cells were seeded in 6-well plates (1 × 10^6 cells per well) and transfected the following day using Lipofectamine 3000 (Invitrogen L3000008) according to the manufacturer’s instructions. 2 μg of p61BRAF^V600E plasmid (pcDNA-3 vector) DNA per well was employed. […] ERK signaling and BRAF^V600E expression was assessed by western blot. […] In addition, HEK239H cells seeded in 6-well plates (1 × 10^6 cells per well) were transfected with Lipofectamine 3000 containing 2 μg of p61BRAF^V600E plasmid or 2 μg of p61BRAF^V600ER509H plasmid (pcDNA-3 vector) DNA per well. 24 h after transfection cells were treated with DMSO or increasing concentrations of PHI1 for 1 h and ERK signaling, and BRAF expression was assessed by western blot.

For data set [7], the system named is HEK293H cells expressing p61BRAF^V600E/R509H. Nature of the data set: p-ERK inhibition in transfected HEK293H cells. The data set is classed as cell-based. Particulars: HEK293-H, 1 μM lapatinib pre-treatment 1 h, PHI1 1 h, read-out: IC50 of pERK inhibition. As to the method:
as §1

In another data set the target is T10, ACVR1B (Homo sapiens, UniProt P36896).
T10 construct: purchased Eurofins/DiscoverX KINOMEscan (scanEDGE panel)
Nature of the data set: KINOMEscan scanEDGE binding. The conditions noted are these: KinomeEDGE scan, compound at 1 μΜ.

In the next data set the target is T11, ABL1 (Homo sapiens, UniProt P00519).
T11 construct: purchased Invitrogen (SelectScreen service)
Nature of the data set: SelectScreen kinase activity assay. The data set is classed as biochemical. The conditions noted are these: 100 μM ATP.

Bounds are passed on as bounds.

Usually IC50 stands for the concentration that inhibits the measured activity by half.

T8 sequence (P15056 whole entry V600E): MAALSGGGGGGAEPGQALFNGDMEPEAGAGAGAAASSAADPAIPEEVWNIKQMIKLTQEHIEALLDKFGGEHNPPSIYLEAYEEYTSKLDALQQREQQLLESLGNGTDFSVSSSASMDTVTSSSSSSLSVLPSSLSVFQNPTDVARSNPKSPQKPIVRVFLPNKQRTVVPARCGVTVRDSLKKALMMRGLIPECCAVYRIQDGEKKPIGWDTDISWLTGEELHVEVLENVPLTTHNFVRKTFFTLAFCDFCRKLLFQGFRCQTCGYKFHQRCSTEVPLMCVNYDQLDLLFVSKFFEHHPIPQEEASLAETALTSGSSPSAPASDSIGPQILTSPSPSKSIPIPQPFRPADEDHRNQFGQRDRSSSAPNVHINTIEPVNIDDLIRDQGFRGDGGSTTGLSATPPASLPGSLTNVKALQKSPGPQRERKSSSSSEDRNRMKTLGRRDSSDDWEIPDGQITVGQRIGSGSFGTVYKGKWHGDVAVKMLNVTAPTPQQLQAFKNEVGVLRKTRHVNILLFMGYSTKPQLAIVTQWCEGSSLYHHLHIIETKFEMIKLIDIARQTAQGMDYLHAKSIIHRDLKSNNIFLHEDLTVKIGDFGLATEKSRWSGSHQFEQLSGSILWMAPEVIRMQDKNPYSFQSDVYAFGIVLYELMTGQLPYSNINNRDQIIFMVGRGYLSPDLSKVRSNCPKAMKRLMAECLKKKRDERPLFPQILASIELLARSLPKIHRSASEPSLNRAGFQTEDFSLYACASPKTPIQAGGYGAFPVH
T10 sequence (P36896 24-505): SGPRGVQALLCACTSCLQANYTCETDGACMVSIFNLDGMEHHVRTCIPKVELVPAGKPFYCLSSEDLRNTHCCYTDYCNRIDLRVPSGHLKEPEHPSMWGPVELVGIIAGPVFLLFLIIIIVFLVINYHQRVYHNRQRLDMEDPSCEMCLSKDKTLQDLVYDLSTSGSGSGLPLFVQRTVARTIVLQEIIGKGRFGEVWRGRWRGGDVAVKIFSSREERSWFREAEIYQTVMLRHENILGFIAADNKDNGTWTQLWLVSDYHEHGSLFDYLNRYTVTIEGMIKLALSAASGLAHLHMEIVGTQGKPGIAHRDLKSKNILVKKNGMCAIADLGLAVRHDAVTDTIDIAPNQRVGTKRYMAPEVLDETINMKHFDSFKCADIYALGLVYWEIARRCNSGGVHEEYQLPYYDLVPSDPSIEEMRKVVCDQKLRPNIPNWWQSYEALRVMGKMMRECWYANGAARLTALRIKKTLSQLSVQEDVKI
T3 sequence (O14920 whole entry): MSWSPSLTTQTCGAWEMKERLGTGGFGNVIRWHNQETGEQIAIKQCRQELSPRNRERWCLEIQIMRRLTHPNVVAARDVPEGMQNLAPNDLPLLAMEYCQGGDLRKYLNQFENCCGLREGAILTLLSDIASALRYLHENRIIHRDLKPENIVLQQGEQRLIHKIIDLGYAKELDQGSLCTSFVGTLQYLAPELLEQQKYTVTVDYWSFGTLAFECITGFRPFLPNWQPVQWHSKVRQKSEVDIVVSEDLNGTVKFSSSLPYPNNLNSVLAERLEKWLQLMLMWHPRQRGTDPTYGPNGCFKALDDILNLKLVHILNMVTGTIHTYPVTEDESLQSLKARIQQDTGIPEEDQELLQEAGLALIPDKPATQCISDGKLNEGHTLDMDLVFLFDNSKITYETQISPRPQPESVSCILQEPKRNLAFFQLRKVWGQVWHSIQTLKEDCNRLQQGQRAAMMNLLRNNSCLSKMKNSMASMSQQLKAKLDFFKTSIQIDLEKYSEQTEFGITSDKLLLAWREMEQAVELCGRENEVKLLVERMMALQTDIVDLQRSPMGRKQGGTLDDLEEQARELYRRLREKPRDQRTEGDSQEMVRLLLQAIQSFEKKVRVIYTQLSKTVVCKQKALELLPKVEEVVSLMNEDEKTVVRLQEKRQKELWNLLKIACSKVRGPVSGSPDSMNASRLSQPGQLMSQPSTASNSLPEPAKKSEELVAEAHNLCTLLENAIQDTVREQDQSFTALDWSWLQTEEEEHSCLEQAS
BRAF^V600E monomers in A375 cells, sequence (P15056 whole entry V600E): as the sequence (P15056 whole entry V600E) above
T5 sequence (Q15303 26-1308): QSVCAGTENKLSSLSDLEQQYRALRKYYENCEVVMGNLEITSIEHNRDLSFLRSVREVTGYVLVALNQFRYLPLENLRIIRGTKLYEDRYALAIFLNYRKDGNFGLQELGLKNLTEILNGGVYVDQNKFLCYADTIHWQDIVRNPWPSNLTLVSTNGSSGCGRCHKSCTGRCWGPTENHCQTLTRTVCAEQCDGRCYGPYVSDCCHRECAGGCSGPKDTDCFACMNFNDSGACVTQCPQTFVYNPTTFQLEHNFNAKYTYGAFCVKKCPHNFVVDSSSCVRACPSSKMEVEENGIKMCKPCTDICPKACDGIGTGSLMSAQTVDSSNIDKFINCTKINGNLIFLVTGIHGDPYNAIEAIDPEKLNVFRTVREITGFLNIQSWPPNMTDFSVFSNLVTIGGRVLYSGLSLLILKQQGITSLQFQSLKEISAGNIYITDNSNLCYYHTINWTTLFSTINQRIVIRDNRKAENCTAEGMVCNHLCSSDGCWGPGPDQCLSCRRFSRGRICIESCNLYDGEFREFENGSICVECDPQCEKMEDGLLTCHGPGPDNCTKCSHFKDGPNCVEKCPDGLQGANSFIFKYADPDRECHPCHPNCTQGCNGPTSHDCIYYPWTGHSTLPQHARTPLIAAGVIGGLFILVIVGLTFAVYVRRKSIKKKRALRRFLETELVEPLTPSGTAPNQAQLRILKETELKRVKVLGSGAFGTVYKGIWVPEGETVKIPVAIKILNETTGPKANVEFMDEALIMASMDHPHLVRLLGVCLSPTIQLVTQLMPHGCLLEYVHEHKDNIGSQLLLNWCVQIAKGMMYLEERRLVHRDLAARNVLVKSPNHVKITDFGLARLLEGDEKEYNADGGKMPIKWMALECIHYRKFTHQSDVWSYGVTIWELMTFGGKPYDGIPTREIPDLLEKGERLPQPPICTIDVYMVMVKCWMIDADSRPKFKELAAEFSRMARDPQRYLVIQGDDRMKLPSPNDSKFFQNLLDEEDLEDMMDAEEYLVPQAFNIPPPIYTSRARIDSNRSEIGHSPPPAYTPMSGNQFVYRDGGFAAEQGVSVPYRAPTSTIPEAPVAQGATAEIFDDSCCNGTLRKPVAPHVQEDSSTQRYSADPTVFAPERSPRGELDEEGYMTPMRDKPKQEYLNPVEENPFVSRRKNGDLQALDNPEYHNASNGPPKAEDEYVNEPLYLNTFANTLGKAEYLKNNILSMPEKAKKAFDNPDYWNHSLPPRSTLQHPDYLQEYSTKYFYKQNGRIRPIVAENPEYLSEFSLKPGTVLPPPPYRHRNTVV
T6 sequence (P04049 whole entry, species assumed): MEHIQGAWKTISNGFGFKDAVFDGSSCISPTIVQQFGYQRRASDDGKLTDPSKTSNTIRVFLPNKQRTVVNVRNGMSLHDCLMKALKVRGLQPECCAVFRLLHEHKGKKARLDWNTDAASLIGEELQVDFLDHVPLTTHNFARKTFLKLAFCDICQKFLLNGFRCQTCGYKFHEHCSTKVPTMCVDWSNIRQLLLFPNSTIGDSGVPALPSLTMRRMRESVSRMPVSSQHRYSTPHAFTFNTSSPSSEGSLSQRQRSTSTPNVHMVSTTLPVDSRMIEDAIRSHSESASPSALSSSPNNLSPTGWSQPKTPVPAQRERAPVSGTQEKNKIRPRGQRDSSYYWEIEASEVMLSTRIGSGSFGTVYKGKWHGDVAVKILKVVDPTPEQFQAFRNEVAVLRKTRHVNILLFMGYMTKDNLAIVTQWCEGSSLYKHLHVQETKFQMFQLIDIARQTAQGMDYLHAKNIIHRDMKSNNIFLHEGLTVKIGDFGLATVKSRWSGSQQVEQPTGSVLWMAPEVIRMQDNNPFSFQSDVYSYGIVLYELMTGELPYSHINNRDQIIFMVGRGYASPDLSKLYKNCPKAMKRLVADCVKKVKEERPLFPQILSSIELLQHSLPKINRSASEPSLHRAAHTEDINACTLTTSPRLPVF
FGFR1, sequence (P11362 22-822): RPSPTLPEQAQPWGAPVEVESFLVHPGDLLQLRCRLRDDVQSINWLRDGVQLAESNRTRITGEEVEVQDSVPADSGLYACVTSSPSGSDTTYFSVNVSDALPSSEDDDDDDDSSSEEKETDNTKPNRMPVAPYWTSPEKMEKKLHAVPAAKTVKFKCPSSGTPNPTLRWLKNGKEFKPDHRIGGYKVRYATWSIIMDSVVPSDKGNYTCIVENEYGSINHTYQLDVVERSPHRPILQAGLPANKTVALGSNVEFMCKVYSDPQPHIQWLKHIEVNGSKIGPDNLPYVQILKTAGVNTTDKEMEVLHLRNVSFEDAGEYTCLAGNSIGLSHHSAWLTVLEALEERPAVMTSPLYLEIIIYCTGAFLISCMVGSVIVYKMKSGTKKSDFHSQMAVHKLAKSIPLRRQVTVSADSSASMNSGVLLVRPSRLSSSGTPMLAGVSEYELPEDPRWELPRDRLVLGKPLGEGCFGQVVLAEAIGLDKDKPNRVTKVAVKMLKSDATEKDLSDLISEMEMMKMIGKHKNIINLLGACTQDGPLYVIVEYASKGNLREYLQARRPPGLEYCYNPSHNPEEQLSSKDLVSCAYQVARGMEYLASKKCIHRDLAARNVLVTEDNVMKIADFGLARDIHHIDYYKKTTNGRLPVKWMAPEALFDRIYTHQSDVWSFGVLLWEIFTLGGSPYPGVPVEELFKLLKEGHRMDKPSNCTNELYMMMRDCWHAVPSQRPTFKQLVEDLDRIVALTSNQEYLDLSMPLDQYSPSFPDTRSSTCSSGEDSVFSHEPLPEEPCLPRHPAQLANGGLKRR
Method for CRAF: as §2

Consider `Cc1ccc(C(=O)Nc2ccc(CN3CCN(C)CC3)c(C(F)(F)F)c2)cc1C#Cc1cnc2cccnn12` [Ponatinib, 3-[2-(imidazo[1,2-b]pyridazin-3-yl)ethynyl]-4-methyl-N-{4-[(4-methylpiperazin-1-yl)methyl]-3-(trifluoromethyl)phenyl}benzamide], for which the “% Ctrl EGFR(L858R)” value at EGFR(L858R) was 19 % Ctrl. Further, the “% Ctrl FGFR3” value at FGFR3 stood at 0.9 % Ctrl. Also, on IKK-beta, the “% Ctrl IKK-beta” value is listed as 1.4 % Ctrl. Also, the “% Ctrl CDK7” value on CDK7 was found to be 6.2 % Ctrl. Further, in [1], the elimination half-life is given as above 24 h and the maximum plasma levels is listed as ~ 100 nM. Besides, the “% Ctrl ERBB4” value on ERBB4 was 27 % Ctrl. Besides, the “inhibition of CRAF kinase activity (in words)” value at CRAF was “potently inhibited”. Moreover, on AXL, the “% Ctrl AXL” value amounted to 14 % Ctrl. Moreover, the “inhibition of MEK phosphorylation by BRAF^V600E (in words)” value against BRAF^V600E [2] is “potent inhibitor”. The “% Ctrl FGFR1” value at FGFR1 amounted to 0.15 % Ctrl.

Take `Cc1ccc(C(=O)Nc2ccc(CNCCN3CCOCC3)c(C(F)(F)F)c2)cc1C#Cc1cnc2cccnn12` [PHI1]: the “% Ctrl EPHA” value with EPHA stood at 14 % Ctrl. Further, in data set [3], the “ΔTm (CETSA)” value is “+3.4 °C”. The “% Ctrl ABL1(T315I)-phosphorylated” value in data set [4] was found to be 3.5 % Ctrl. The IC50 against BRAF^V600E [5] was 10 nM; in [6], 1890 nM; in data set [7], 6800 nM; against ABL1, 8.4 ± 0.3 nM. The “% Ctrl ACVR1B” value at ACVR1B is 0.4 % Ctrl.
